# Values of other authors, collected in patent US20070021506A1, “Stress relieving composition” (Ajinomoto Co., Inc., priority 2004, published 2007).
# Where two headings read alike, the source gives them in different places.
# Columns and labels:
# [1] = test system: benzodiazepine receptor; conditions: Non-patent document 9
# [2] = target: T1, 5HT-4 receptor (Rattus norvegicus, UniProt Q62758)
# T1 construct: suppressed anxiety disorder of rats induced by a 5HT-4 receptor agonist; from tissue; host or cells: living rats (whole animal; oral L-lysine, s.c. agonist)
# T1 sequence (Q62758 whole entry): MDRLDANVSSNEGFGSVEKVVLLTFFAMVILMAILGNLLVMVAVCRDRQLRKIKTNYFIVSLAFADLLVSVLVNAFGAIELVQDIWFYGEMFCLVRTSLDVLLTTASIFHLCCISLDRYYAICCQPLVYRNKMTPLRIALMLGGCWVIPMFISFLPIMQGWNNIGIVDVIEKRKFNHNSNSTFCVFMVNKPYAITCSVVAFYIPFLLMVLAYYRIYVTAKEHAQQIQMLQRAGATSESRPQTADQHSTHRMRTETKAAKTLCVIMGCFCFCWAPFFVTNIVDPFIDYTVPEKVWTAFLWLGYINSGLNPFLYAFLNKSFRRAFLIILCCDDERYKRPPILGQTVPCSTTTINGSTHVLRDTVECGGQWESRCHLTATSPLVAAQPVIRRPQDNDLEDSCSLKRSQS
# [3] = target: T2, 5-HT4 receptor (Cavia porcellus, UniProt O70528); conditions: in vitro
# T2 construct: from tissue; host or cells: guinea pig ileum
# T2 sequence (O70528 whole entry): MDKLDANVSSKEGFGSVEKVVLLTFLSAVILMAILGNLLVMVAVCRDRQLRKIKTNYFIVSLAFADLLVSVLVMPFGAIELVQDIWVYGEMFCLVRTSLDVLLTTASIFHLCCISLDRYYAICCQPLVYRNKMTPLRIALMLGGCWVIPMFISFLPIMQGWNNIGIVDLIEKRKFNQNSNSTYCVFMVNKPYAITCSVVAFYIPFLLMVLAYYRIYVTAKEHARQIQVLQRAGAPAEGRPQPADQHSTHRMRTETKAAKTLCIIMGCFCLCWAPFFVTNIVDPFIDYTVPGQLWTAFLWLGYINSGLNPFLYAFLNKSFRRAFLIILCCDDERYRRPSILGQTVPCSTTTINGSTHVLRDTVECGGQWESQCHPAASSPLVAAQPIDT
structure (smiles),measurement,setting,value
NCCCC[C@H](N)C(=O)O [L-lysine],action at benzodiazepine receptor,[1],benzodiazepine receptor agonist
same,anxiety disorder of rats induced by a 5HT-4 receptor agonist,"[2]; 1 g/kg, p.o., agonist 3.0 mmol/l s.c.",significantly suppressed
same,action at 5HT-4 receptor,"[2]; rat, in vivo",partially serves as a 5HT-4 receptor antagonist
same,5-HT-induced contraction of the guinea pig ileum,"[3]; 0.07 mmol/dl, P<0.05",blocked
same,5-HT-induced contraction of the guinea pig ileum,"[3]; 0.7 mmol/dl, P<0.01",blocked
"N[C@@H](Cc1c[nH]c2ccccc12)C(=O)O [Trp, tryptophan]",mood enhancement effect,clinical study conducted recently (Non-patent document 3),could not be fully supported
same,stress-induced mood,"comparative clinical study, taken alone or together with carbohydrates",relieved
"N[C@@H](Cc1ccc(O)cc1)C(=O)O [Tyr, tyrosine]",mood,normal subjects exposed to mental stress,improved the mood significantly
same,effect in terms of mood criterion,patients with depression,a significant effect in terms of mood criterion was not observed
